Assay results published in ChEMBL document CHEMBL1136403, “Synthesis and biological evaluation of some novel 4'-thio-L-ribonucleosides with modified nucleobase moieties” (Bioorg Med Chem Lett, 2003).
Each block holds one molecule with its values, some of them ahead of it.

Legend:
C6 = assay: In vitro cytotoxicity against C6 rat glioma cell line; type: functional, cell-based
U-87 MG = assay: In vitro cytotoxicity against HTB14 human glioma cell line; type: functional, cell-based, U-87MG ATCC
HeLa = assay: In vitro cytotoxicity against HeLa human cervical carcinoma cell line; type: functional, cell-based
NHDF = assay: In vitro cytotoxicity against normal human dermal fibroblast (NHDF) cell line; type: functional, cell-based
NB-4 [1] = assay: Growth stimulating activity against NB4 leukemia cell line; growth stimulatory activity is observed.; type: functional, cell-based, Homo sapiens
T47D [2] = assay: Growth stimulating activity against T47D breast cancer cell line; growth stimulatory activity is observed.; type: functional, cell-based, Homo sapiens
NB-4 [3] = assay: In vitro cytotoxicity against NB4 leukemia cell line; type: functional, cell-based; conditions: Homo sapiens
T47D [4] = assay: In vitro cytotoxicity against T47D breast cancer cell line; type: functional, cell-based; conditions: Homo sapiens

IC50 (T47D [2]): Growth-stimulatory activity
SMILES: Nc1nc(=O)n([C@H]2S[C@@H](CO)[C@H](O)[C@@H]2O)cc1F
IC50 (C6): > 100 µM
IC50 (U-87 MG): 83.3 µM
IC50 (HeLa): 95.9 µM
IC50 (NHDF): > 100 µM
IC50 (NB-4 [1]): Growth-stimulatory activity

SMILES: O=c1[nH]c(=O)n([C@H]2S[C@@H](CO)[C@H](O)[C@@H]2O)cc1F
IC50 (C6): > 100 µM
IC50 (U-87 MG): 41.5 µM
IC50 (HeLa): > 100 µM
IC50 (NHDF): > 100 µM
IC50 (NB-4 [3]): > 100 µM
IC50 (T47D [4]): > 100 µM

SMILES: Cc1cn([C@H]2S[C@@H](CO)[C@H](O)[C@@H]2O)c(=O)[nH]c1=O
IC50 (C6): > 100 µM
IC50 (U-87 MG): 67.8 µM
IC50 (HeLa): 100 µM
IC50 (NHDF): > 100 µM
IC50 (NB-4 [3]): > 100 µM
IC50 (T47D [4]): > 100 µM

IC50 (T47D [2]): Growth-stimulatory activity
SMILES: Nc1nc(S)c2ncn([C@H]3S[C@@H](CO)[C@H](O)[C@@H]3O)c2n1
IC50 (C6): > 100 µM
IC50 (U-87 MG): 62.1 µM
IC50 (HeLa): > 100 µM
IC50 (NHDF): > 100 µM
IC50 (NB-4 [3]): > 100 µM
